Tested on: 885512-296-R-J2-PDC complex spheroid viability
Experiment: Anticancer human tumor 885512-296-R-J2-PDC patient-derived breast carcinoma cell line growth inhibition
Conditions: for IC50: curve of first compound; for viability, T/C: stronger effect = lower value
How it was run: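 Drug combinations with the LSD1 inhibitor iadademstat tested on tumor cells co-cultured as spheroids with endothelial cells and mesenchymal stem cells. Concentrations descended in half-log increments from clinical Cmax or 10 microM.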

[1] = second compound 0.1 µM, first compound 0.0316 µM
[2] = second compound 0.1 µM, first compound 0.1 µM
[3] = second compound 0.1 µM, first compound 0.316 µM
[4] = second compound 0.1 µM, first compound 1 µM
[5] = second compound 0.1 µM, first compound 3.16 µM
[6] = second compound 0.1 µM, first compound 10 µM
[7] = second compound 0.316 µM, first compound 0.0316 µM
[8] = second compound 0.316 µM, first compound 0.1 µM
[9] = second compound 0.316 µM, first compound 0.316 µM
[10] = second compound 0.316 µM, first compound 1 µM
[11] = second compound 0.316 µM, first compound 3.16 µM
[12] = second compound 0.316 µM, first compound 10 µM
[13] = second compound 1 µM, first compound 0.0316 µM
[14] = second compound 1 µM, first compound 0.1 µM
[15] = second compound 1 µM, first compound 0.316 µM
[16] = second compound 1 µM, first compound 1 µM
[17] = second compound 1 µM, first compound 3.16 µM
[18] = second compound 1 µM, first compound 10 µM
[19] = second compound 3.16 µM, first compound 0.0316 µM
[20] = second compound 3.16 µM, first compound 0.1 µM
[21] = second compound 3.16 µM, first compound 0.316 µM
[22] = second compound 3.16 µM, first compound 1 µM
[23] = second compound 3.16 µM, first compound 3.16 µM
[24] = second compound 3.16 µM, first compound 10 µM
[25] = second compound 10 µM, first compound 0.0316 µM
[26] = second compound 10 µM, first compound 0.1 µM
[27] = second compound 10 µM, first compound 0.316 µM
[28] = second compound 10 µM, first compound 1 µM
[29] = second compound 10 µM, first compound 3.16 µM
[30] = second compound 10 µM, first compound 10 µM
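Further: spheroids exposed to agents for 7 days before viability read.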

Row | SMILES | IC50 (second compound 0.1 µM) [nM] | IC50 (second compound 0.316 µM) [nM] | IC50 (second compound 1 µM) [nM] | IC50 (second compound 3.16 µM) [nM] | IC50 (second compound 10 µM) [nM] | viability, T/C [1] [%] | viability, T/C [2] [%] | viability, T/C [3] [%] | viability, T/C [4] [%] | viability, T/C [5] [%] | viability, T/C [6] [%] | viability, T/C [7] [%] | viability, T/C [8] [%] | viability, T/C [9] [%] | viability, T/C [10] [%] | viability, T/C [11] [%] | viability, T/C [12] [%] | viability, T/C [13] [%] | viability, T/C [14] [%] | viability, T/C [15] [%] | other results
1 | CC1(C)CCC(CN2CCN(c3ccc(C(=O)NS(=O)(=O)c4ccc(NCC5CCOCC5)c([N+](=O)[O-])c4)c(Oc4cnc5[nH]ccc5c4)c3)CC2)=C(c2ccc(Cl)cc2)C1 + NC1CCC(NC2CC2c2ccccc2)CC1 | 4990 | 4830 | 4900 | 4940 | 3840 | 106 | 109 | 115 | 98.9 | 72.8 | 15.8 | 112 | 116 | 120 | 90.1 | 72.2 | 16 | 110 | 115 | 116 | viability, T/C [16]: 93.4%; viability, T/C [17]: 73.1%; viability, T/C [18]: 14.7%; viability, T/C [19]: 111%; viability, T/C [20]: 107%; viability, T/C [21]: 114%; viability, T/C [22]: 98.7%; viability, T/C [23]: 71%; viability, T/C [24]: 17.4%; viability, T/C [25]: 84.3%; viability, T/C [26]: 82.8%; viability, T/C [27]: 77.9%; viability, T/C [28]: 87.4%; viability, T/C [29]: 56.2%; viability, T/C [30]: 19.9%
2 | CC1COCCN1c1cc(C2(S(C)(=N)=O)CC2)nc(-c2ccnc3[nH]ccc23)n1 (stereo not given) + NC1CCC(NC2CC2c2ccccc2)CC1 | 166 | 155 | 166 | 119 | 124 | 98.8 | 77.3 | 15.1 | 7.78 | 9.98 | 4.57 | 94.7 | 71.4 | 15.3 | 4.43 | 4.53 | 7.27 | 98.8 | 75.8 | 17.4 | viability, T/C [16]: 5.72%; viability, T/C [17]: 7%; viability, T/C [18]: 4.61%; viability, T/C [19]: 108%; viability, T/C [20]: 56.5%; viability, T/C [21]: 13.4%; viability, T/C [22]: 5.73%; viability, T/C [23]: 4.8%; viability, T/C [24]: 4.21%; viability, T/C [25]: 84.5%; viability, T/C [26]: 59.1%; viability, T/C [27]: 9.91%; viability, T/C [28]: 3.2%; viability, T/C [29]: 3.14%; viability, T/C [30]: 1.66%
